Values after ≈ are worked out from the molar mass of the structure shown.
The compounds below were run on Mycobacterium tuberculosis (assay: Antimycobacterial activity against Mycobacterium tuberculosis H37Rv ATCC 27294 after 28 days by agar dilution method). Details: H37Rv ATCC 27294, 672 h.
Type: functional

**Q.** Which MIC does the source give for Nc1ccc(C(=O)CC2(O)c3ccccc3-c3nc4ccccc4nc32)cc1 (racemic) here?
**A.** The MIC was 8.45 µM (≈ 3.1 µg/mL).

**Q.** Which MIC does the source give for O=C(CC1(O)c2ccccc2-n2c1nc1ccccc1c2=O)c1ccc(Br)cc1 (racemic) here?
**A.** Its MIC is 112 µM (≈ 50 µg/mL).

**Q.** Which MIC does the source give for Brc1ccc(C2=NN(c3ccccc3)C3(C2)c2ccccc2-c2nc4ccccc4nc23)cc1 (racemic) here?
**A.** Its MIC is 12.4 µM (≈ 6.25 µg/mL).

**Q.** Nc1ccccc1C(=O)CC1(O)c2ccccc2-n2c1nc1ccccc1c2=O (racemic) was tested. Which MIC did it give?
**A.** The MIC was 3.99 µM (≈ 1.53 µg/mL).

**Q.** For O=c1c2ccccc2[nH]c2c(-c3c(-c4ccccc4)[nH]c4ccccc34)c3ccccc3n12, which MIC is on record?
**A.** Its MIC is 8.58 µM (≈ 3.65 µg/mL).

**Q.** O=C(CC1(O)c2cccc(Br)c2-n2c1nc1ccccc1c2=O)c1ccc(Br)cc1 (racemic) was tested. Which MIC did it give?
**A.** The MIC was 11.9 µM (≈ 6.24 µg/mL).

**Q.** Which MIC does the source give for O=C(CC1(O)c2ccccc2-n2c1nc1ccccc1c2=O)c1ccc(F)cc1 (racemic) here?
**A.** Its MIC is 8.85 µM (≈ 3.42 µg/mL).

**Q.** How did the MIC turn out when CC[C@@H](CO)NCCN[C@@H](CC)CO [ETHAMBUTOL] was run?
**A.** The MIC was 15.3 µM (≈ 3.13 µg/mL).

**Q.** O=C(CC1(O)c2ccccc2-n2c1nc1ccccc1c2=O)c1cccs1 (racemic) was tested. Which MIC did it give?
**A.** The MIC was 16.7 µM (≈ 6.25 µg/mL).

**Q.** Nc1ccccc1-c1[nH]c2ccccc2c1-c1c2ccccc2n2c(=O)c3ccccc3[nH]c12 was tested. Which MIC did it give?
**A.** Its MIC is 6.18 µM (≈ 2.72 µg/mL).

**Q.** N#Cc1ccc(-c2[nH]c3ccccc3c2-c2c3ccccc3n3c(=O)c4ccccc4[nH]c23)cc1 was tested. Which MIC did it give?
**A.** The MIC was 7.06 µM (≈ 3.18 µg/mL).

**Q.** Which MIC does the source give for Nc1ccc(C(=O)CC2(O)c3ccccc3-n3c2nc2ccccc2c3=O)cc1 (racemic) here?
**A.** Its MIC is 16.3 µM (≈ 6.26 µg/mL).

**Q.** How did the MIC turn out when Nc1ccc(C2=NN(c3ccccc3)C3(C2)c2ccccc2-c2nc4ccccc4nc23)cc1 (racemic) was run?
**A.** Its MIC is 7.17 µM (≈ 3.15 µg/mL).

**Q.** For O=c1c2ccccc2[nH]c2c(-c3c(-c4cccs4)[nH]c4ccccc34)c3ccccc3n12, which MIC is on record?
**A.** The MIC was 7.3 µM (≈ 3.15 µg/mL).

**Q.** Which MIC does the source give for Nc1ccc(-c2[nH]c3ccccc3c2-c2c3ccccc3n3c(=O)c4ccccc4[nH]c23)cc1 here?
**A.** Its MIC is 14.2 µM (≈ 6.24 µg/mL).

**Q.** Which MIC does the source give for CCc1ccc(C(=O)CC2(O)c3ccccc3-n3c2nc2ccccc2c3=O)cc1 (racemic) here?
**A.** Its MIC is 7.88 µM (≈ 3.12 µg/mL).

**Q.** How did the MIC turn out when Nc1ccccc1C1=NN(c2ccccc2)C2(C1)c1ccccc1-c1nc3ccccc3nc12 (racemic) was run?
**A.** The MIC was 56.9 µM (≈ 25 µg/mL).

**Q.** How did the MIC turn out when O=c1c2ccccc2[nH]c2c(-c3c(-c4ccc(F)cc4)[nH]c4ccccc34)c3ccccc3n12 was run?
**A.** Its MIC is 27.7 µM (≈ 12.3 µg/mL).

**Q.** O=C(O)c1cn(C2CC2)c2cc(N3CCNCC3)c(F)cc2c1=O [CIPROFLOXACIN] was tested. Which MIC did it give?
**A.** Its MIC is 12.6 µM (≈ 4.17 µg/mL).

**Q.** For O=c1c2ccccc2[nH]c2c(-c3c(-c4ccc(Br)cc4)[nH]c4ccccc34)c3ccccc3n12, which MIC is on record?
**A.** The MIC was 56.4 µM (≈ 28.5 µg/mL).

**Q.** How did the MIC turn out when O=c1c2ccccc2[nH]c2c(-c3c(-c4ccccc4O)[nH]c4ccccc34)c3ccccc3n12 was run?
**A.** The MIC was 29.4 µM (≈ 13 µg/mL).

**Q.** For O=C(CC1(O)c2ccccc2-n2c1nc1ccccc1c2=O)c1ccccc1 (racemic), which MIC is on record?
**A.** The MIC was 16.9 µM (≈ 6.23 µg/mL).

**Q.** CCc1ccc(-c2[nH]c3ccccc3c2-c2c3ccccc3n3c(=O)c4ccccc4[nH]c23)cc1 was tested. Which MIC did it give?
**A.** Its MIC is 12.3 µM (≈ 5.59 µg/mL).

**Q.** For O=C(CC1(O)c2ccccc2-c2nc3ccccc3nc21)c1ccc(Br)cc1 (racemic), which MIC is on record?
**A.** Its MIC is 14.4 µM (≈ 6.22 µg/mL).

**Q.** Nc1ccccc1C(=O)CC1(O)c2ccccc2-c2nc3ccccc3nc21 (racemic) was tested. Which MIC did it give?
**A.** The MIC was 17 µM (≈ 6.25 µg/mL).

**Q.** Which MIC does the source give for O=C(CC1(O)c2ccccc2-n2c1nc1ccccc1c2=O)c1ccccc1NC(=S)Nc1ccc([N+](=O)[O-])cc1 (racemic) here?
**A.** The MIC was 5.98 µM (≈ 3.37 µg/mL).

**Q.** N#Cc1ccc(C(=O)CC2(O)c3ccccc3-n3c2nc2ccccc2c3=O)cc1 (racemic) was tested. Which MIC did it give?
**A.** The MIC was 15.9 µM (≈ 6.26 µg/mL).

**Q.** For O=C(CC1(O)c2ccccc2-n2c1nc1ccccc1c2=O)c1ccccc1O (racemic), which MIC is on record?
**A.** The MIC was 16.2 µM (≈ 6.24 µg/mL).

The compounds below were run on Mycobacterium tuberculosis (assay: Antimycobacterial activity against Mycobacterium tuberculosis H37Rv). Details: not given.
Type: functional

**Q.** How did the MIC turn out when O=C1c2ccccc2-n2c1nc1ccccc1c2=O [TRYPTANTHRIN] was run?
**A.** The MIC was 1 µg/mL (≈ 4.03 µM).

Each compound was assayed on Mycobacterium avium (assay: Antimycobacterial activity against Mycobacterium avium). Details: not given.
Type: functional

**Q.** Which MIC does the source give for O=C1c2ccccc2-n2c1nc1ccccc1c2=O [TRYPTANTHRIN] here?
**A.** Its MIC is 4 µg/mL (≈ 16.1 µM).

Each compound was assayed on Mycolicibacterium smegmatis (assay: Antimycobacterial activity against Mycobacterium smegmatis). Details: not given.
Type: functional

**Q.** How did the MIC turn out when O=C1c2ccccc2-n2c1nc1ccccc1c2=O [TRYPTANTHRIN] was run?
**A.** The MIC was 6 µg/mL (≈ 24.2 µM).

Source: ChEMBL document CHEMBL3608226, “Synthesis and biological evaluation of phaitanthrin congeners as anti-mycobacterial agents” (2015)
